Measured values taken from patent US20250074920A1, “MACROCYCLIC COMPOUNDS AND USE AS KINASE INHIBITORS” (BLOSSOMHILL THERAPEUTICS, INC., priority 2022, published 2025).

Experiments:
Assay in all cases: KINOMEscan kinase binding assay
[1] = target: JAK1(JH1domain-catalytic); conditions: read-out: JAK1(JH1 domain-catalytic) Kd
Experimental: (§1) Kinase binding assays were performed at Eurofins/DiscoveRx using the general KINOMEscan Protocol (Fabian, M. A. et al., “A small molecule-kinase interaction map for clinical kinase inhibitors,” Nat. Biotechnol. 2005, 23(3):329-36). For most assays, kinase-tagged T7 phage strains were prepared in an E. coli host derived from the BL21 strain. E. coli were grown to log-phase and infected with T7 phage and incubated with shaking at 32° C. until lysis. The lysates were centrifuged and filtered to remove cell debris. The remaining kinases were produced in HEK-293 cells and subsequently tagged with DNA for qPCR detection. Streptavidin-coated magnetic beads were treated with biotinylated small molecule ligands for 30 minutes at room temperature to generate affinity resins for kinase assays. The liganded beads were blocked with excess biotin and washed with blocking buffer (SeaBlock (Pierce), 1% BSA, 0.05% Tween 20, 1 mM DTT) to remove unbound ligand and to reduce nonspecific binding. Binding reactions were assembled by combining kinases, liganded affinity beads, and test compounds in 1× binding buffer (20% SeaBlock, 0.17×PBS, 0.05% Tween 20, 6 mM DTT). All reactions were performed in polystyrene 96-well plates in a final volume of 0.135 mL. The assay plates were incubated at room temperature with shaking for 1 hour and the affinity beads were washed with wash buffer (1×PBS, 0.05% Tween 20). The beads were then re-suspended in elution buffer (1×PBS, 0.05% Tween 20, 0.5 μM non-biotinylated affinity ligand) and incubated at room temperature with shaking for 30 minutes. The kinase concentration in the eluates was measured by qPCR. Results for compounds tested in this assay at a given concentration are reported as “% Ctrl”, where lower numbers indicate stronger binding in the matrix. % Ctrl was calculated as (test compound signal-positive control signal)/(negative control signal-positive control signal)×100. Dissociation constants (Kds) for test compound-kinase interactions were calculated by measuring the amount of kinase captured on the solid support as a function of the test compound concentration.

[2] = target: JAK3(JH1domain-catalytic); conditions: read-out: JAK3(JH1 domain-catalytic) Kd
Experimental: as §1

[3] = target: JAK2(JH1domain-catalytic); conditions: read-out: JAK2(JH1 domain-catalytic) Kd
Experimental: as §1

[4] = target: JAK1(JH2domain-pseudokinase); conditions: read-out: JAK1(JH2 domain-pseudokinase) Kd
Experimental: as §1

[5] = target: TYK2(JH1domain-catalytic); conditions: read-out: TYK2(JH1 domain-catalytic) Kd
Experimental: as §1

[6] = target: TYK2(JH2domain-pseudokinase); conditions: read-out: TYK2(JH2 domain-pseudokinase) Kd
Experimental: as §1

## Cc1cc2c([nH]1)/C=C1\C(=O)Nc3c(Cl)cc(cc31)-c1cn(C)nc1COCCN(C)C2=O [Cpd. 7, [3a(4)Z]-20-chloro-6,9,15-trimethyl-10,11,13,15-tetrahydro-2H-1,17-(ethanediylidene)pyrazolo[4,3-m]dipyrrolo[3,2-f:3′,4′-i][1,4]oxazacyclopentadecine-3,8(5H,9H)-dione]
[1]
  Kd: > 10 µM
[2]
  Kd: > 10 µM
[3]
  Kd: > 10 µM
[4]
  Kd: 0.047 µM
[5]
  Kd: > 10 µM
[6]
  Kd: 0.00051 µM

## Cc1nc2c([nH]1)/C=C1\C(=O)Nc3c(Cl)cc(cc31)-c1cn(C)nc1COC[C@@H](C)N(C)C2=O [Cpd. 8, [3a(4)Z,10R]-20-chloro-6,9,10,15-tetramethyl-10,11,13,15-tetrahydro-2H-1,17-(ethanediylidene)imidazo[4,5-f]pyrazolo[4,3-m]pyrrolo[3,4-i][1,4]oxazacyclopentadecine-3,8(5H,9H)-dione]
[1]
  Kd: > 10 µM
[2]
  Kd: > 10 µM
[3]
  Kd: > 10 µM
[5]
  Kd: > 10 µM
[6]
  Kd: 0.17 µM

## Cc1cc2c([nH]1)/C=C1\C(=O)Nc3c(Cl)cc(cc31)-c1[nH]c(C)nc1COC[C@@H](C)N(C)C2=O [Cpd. 9, [3a(4)Z,10R]-20-chloro-6,9,10,15-tetramethyl-10,11,13,16-tetrahydro-2H-1,17-(ethanediylidene)imidazo[4,5-m]dipyrrolo[3,2-f:3′,4′-i][1,4]oxazacyclopentadecine-3,8(5H,9H)-dione]
[1]
  Kd: > 10 µM
[2]
  Kd: 3.1 µM
[3]
  Kd: > 10 µM
[4]
  Kd: 0.13 µM
[5]
  Kd: > 10 µM
[6]
  Kd: 0.001 µM

## Cc1cc2c([nH]1)/C=C1\C(=O)Nc3c(C#N)cc(cc31)-c1cn(C)nc1COC[C@@H](C)N(C)C2=O [Cpd. 10, [3a(4)Z,10R]-6,9,10,15-tetramethyl-3,8-dioxo-3,5,8,9,10,11,13,15-octahydro-2H-1,17-(ethanediylidene)pyrazolo[4,3-m]dipyrrolo[3,2-f:3′,4′-i][1,4]oxazacyclopentadecine-20-carbonitrile]
[1]
  Kd: > 1 µM
[2]
  Kd: > 1 µM
[3]
  Kd: > 1 µM
[6]
  Kd: 0.046 µM

## Cc1cc2c([nH]1)/C=C1\C(=O)Nc3c(Cl)cc(cc31)-c1cn(C)nc1COC[C@H](C)N(C)C2=O [compound 6, [3a(4)Z,10S]-20-chloro-6,9,10,15-tetramethyl-10,11,13,15-tetrahydro-2H-1,17-(ethanediylidene)pyrazolo[4,3-m]dipyrrolo[3,2-f:3′,4′-i][1,4]oxazacyclopentadecine-3,8(5H,9H)-dione]
[1]
  Kd: > 10 µM
[2]
  Kd: > 10 µM
[3]
  Kd: > 10 µM
[4]
  Kd: 0.16 µM
[5]
  Kd: > 10 µM
[6]
  Kd: 0.0025 µM

## Cc1cc2c([nH]1)/C=C1\C(=O)Nc3c(F)cc(cc31)-c1c(nn(C)c1C)COC[C@@H](C)N(C)C2=O [compound 11, [3a(4)Z,10R]-20-fluoro-6,9,10,15,16-pentamethyl-10,11,13,15-tetrahydro-2H-1,17-ethenopyrazolo[4,3-m]dipyrrolo[3,2-f:3′,4′-i][1,4]oxazacyclopentadecine-3,8(5H,9H)-dione]
[1]
  Kd: > 10 µM
[2]
  Kd: 5.2 µM
[3]
  Kd: > 10 µM
[4]
  Kd: 0.73 µM
[5]
  Kd: > 10 µM
[6]
  Kd: 0.0034 µM

## Cc1cc2c([nH]1)/C=C1\C(=O)Nc3c(Cl)cc(cc31)-c1c(nn(C)c1C)COC[C@@H](C)N(C)C2=O [compound 12, [3a(4)Z,10R]-20-chloro-6,9,10,15,16-pentamethyl-10,11,13,15-tetrahydro-2H-1,17-ethenopyrazolo[4,3-m]dipyrrolo[3,2-f:3′,4′-i][1,4]oxazacyclopentadecine-3,8(5H,9H)-dione]
[1]
  Kd: > 10 µM
[2]
  Kd: > 10 µM
[3]
  Kd: > 10 µM
[4]
  Kd: 0.12 µM
[5]
  Kd: > 10 µM
[6]
  Kd: 0.0013 µM

## Cc1cc2c([nH]1)/C=C1\C(=O)Nc3c(F)cc(cc31)-c1cn(C)nc1COC[C@@H](C)N(C)C2=O [compound 13, [3a(4)Z,10R]-20-fluoro-6,9,10,15-tetramethyl-10,11,13,15-tetrahydro-2H-1,17-ethenopyrazolo[4,3-m]dipyrrolo[3,2-f:3′,4′-i][1,4]oxazacyclopentadecine-3,8(5H,9H)-dione]
[1]
  Kd: > 10 µM
[2]
  Kd: > 10 µM
[3]
  Kd: > 10 µM
[4]
  Kd: 0.41 µM
[5]
  Kd: > 10 µM
[6]
  Kd: 0.001 µM
